We go through five compounds from US20110003892A1, “ALL-TRANS RETINOID ESTERS AS ACTIVE PHARMACEUTICAL INGREDIENTS, ORAL AND TOPICAL DOSAGE FORM COMPOSITIONS THEREOF, AND METHODS OF TREATING SKIN CONDITIONS THEREOF” (priority 2008, published 2011).

In one data set the test system is RARs. To be noted: Repa J J et al., 1993; cited from earlier work.
The test system of a further data set is Rhino mice. In words: Comedolytic effect in orally dosed Rhino mice (comedone area by histology). It counts as in vivo. The note with it: oral treatment; for dose producing maximal reduction in comedone size as compared to the vehicle control: 24 days (FIG. 1); for reduction in comedone area: each retinoid alone, 24 days, various doses (FIG. 1). The method, then: (§1) Animals and dose administration. Rhino mice 6-8 weeks old were orally dosed. The mice were dosed daily. The mice were weighed three times per week, and doses were adjusted weekly based on body weight. The oral formulation was made by mixing each API with Wesson® soybean oil. The oral dose was delivered to the back of the mouth of each mouse. Mice were sacrificed 4 hours after the final oral dose. At sacrifice, the dorsal skin was collected for histological studies.
Comedolytic effect. The extent of the comedolytic effect (i.e., efficacy) was assessed by measuring the average area of the comedones, whereby the smaller the area, the larger the effect and efficacy. The comedone area was determined by histological analysis of tissue sections. Skin was fixed overnight in 4% paraformaldehyde at 4° C. with gentle agitation, and the skin was dehydrated the next day in 100% methanol. Samples were embedded in paraffin and a qty. nine 10μ sections each spaced 150μ apart were prepared from each Rhino mouse. Five of the nine sections were digitally imaged (6× magnification) for comedone analysis using Metamorph Imaging Software (trace function).
The perimeter of each imaged comedone taken from the 5 sections was traced using a Wacom Intuos 3 Graphics Tablet interfaced with the software. The number of pixels representing each individual comedone area was obtained. The mean number of pixels per comedone was obtained for each Rhino mouse. For comedones that were completely healed (i.e., area=0), a pixel value approaching 0 (<10) was assessed. The individual comedone average for each mouse was used to calculate the treatment group mean. Results in the figures herein have been expressed in terms of mean±standard error of the mean.
Preparation of oral retinoid dosing formulations. A concentrated stock solution containing each retinoid was prepared in dichloromethane. The retinoid concentrated stock solution was diluted into ethanol. The concentration of retinoid in that diluted stock solution was determined spectrophotometrically, whereby the molar extinction coefficient=44,340 and λmax=350. The purity of the SB-RA, IPE-RA, IB-RA, and t-butyl RA was determined to be greater than 98% by HPLC. A predetermined volume of retinoid-containing solution was added to Wesson® oil, the sample was mixed, and the residual dichloromethane was removed by flushing the oil with argon for 2-3 hours under a vapor hood. The final dose was delivered orally using ≦50 μL of oil.

Data set [1] is described as follows: Body weight change from baseline in orally dosed Rhino mice. Format: in vivo. To be noted: oral treatment, 24 days, any dose of retinoid studied (FIG. 2). The method, then:
as §1

As to `CC1=C(/C=C/C(C)=C/C=C/C(C)=C\C(=O)O)C(C)(C)CCC1` [13-cis retinoic acid], the “binding to the RARs” value with RARs is on record as “does not bind”.

For `CC1=C(/C=C/C(C)=C/C=C/C(C)=C/C(=O)OCC(C)C)C(C)(C)CCC1` [IB-RA, All-trans-retinoic acid iso-butyl ester], in the data set with Rhino mice, the “dose producing maximal reduction in comedone size as compared to the vehicle control” value (“dose producing maximal reduction” below) was determined as 26.2 μmole/kgBW and the “reduction in comedone area” value is on record as “significant dose-dependent reduction”. For the same compound, the “% change from the starting baseline weight (overall group weight)” value (shortened to “% change”) in data set [1] was “no significant reduction”.

As to `CC1=C(/C=C/C(C)=C/C=C/C(C)=C/C(=O)OC(C)C)C(C)(C)CCC1` [IPE-RA, all-trans-retinoic acid iso-propyl ester], in the data set with Rhino mice, the “dose producing maximal reduction” value is reported as 26.2 μmole/kgBW and the “reduction in comedone area” value was “significant dose-dependent reduction”. Also, in data set [1], the “% change” value is “no significant reduction”.

In the case of `CCC(C)OC(=O)/C=C(C)/C=C/C=C(C)/C=C/C1=C(C)CCCC1(C)C` (stereo not drawn) [SB-RA, all-trans-retinoic acid sec-butyl ester], in the data set on Rhino mice, the “dose producing maximal reduction” value was determined as 26.2 μmole/kgBW and the “reduction in comedone area” value is given as “significant dose-dependent reduction”. In addition, in data set [1], the “% change” value is listed as “no significant reduction”.

With `CC1=C(/C=C/C(C)=C/C=C/C(C)=C/C(=O)OC(C)(C)C)C(C)(C)CCC1` [t-butyl-RA, all-trans-retinoic acid tert-butyl ester], in the data set with Rhino mice, the “dose producing maximal reduction” value was 166 μmole/kgBW and the “reduction in comedone area” value is on record as “significant dose-dependent reduction”. Moreover, the “% change” value in data set [1] was “no significant reduction”.
